Experimental findings from US20140348861A1, “SYNTHETIC PEPTIDES AND RANDOM COPOLYMERS FOR THE TREATMENT OF AUTOIMMUNE DISORDERS” (NATIONAL INSTITUTE OF IMMUNOLOGY, priority 2011, published 2014) are described below.

Non-standard residues stand in square brackets, D forms with d. Primed or numbered codes have the meaning given here. No end group written: not given here. β3hY = N[C@H](CC(=O)O)Cc1ccc(O)cc1; Kβ″ = beta-amino acid residue (K); β3hK = NCCCC[C@H](N)CC(=O)O; β3hA = C[C@H](N)CC(=O)O; Yβ = β-tyrosine

This assay deals with SJL/J mice exhibiting MBP (85-109) induced relapsing remitting form of EAE. The assay can be described thus: Therapeutic activity in MBP (85-109) induced relapsing remitting EAE, treatment from day 11. Format: in vivo. To be noted: SJL/J mice, RR EAE; for Therapeutic activity in comparison to GA (Therapeutic activity (Analogs) − Therapeutic activity GA) / Therapeutic activity in comparison to J5 (Therapeutic activity (Analogs) − Therapeutic activity (J5)): 0.1 mg daily for two weeks; for Therapeutic activity = % reduction in cumulative clinical disability score: synthetic peptides, 0.1 mg daily for two weeks from day 11 post-immunization. The method, then:
SJL/J and C57BL6/J mice procured from Jackson's laboratory (Bar Harbor, Me.) were maintained under standard housing conditions in the central animal facility at NII as per institutional ethical committee guidelines. 8-10 week old female SJL/J mice were used throughout the study.
To induce RR EAE or chronic progressive EAE, SJL/J or C57BL6/J mice were immunized subcutaneously with 0.2 mg of MBP (85-109) or 0.1 mg MOG (35-55) emulsified in CFA and 200 ng of pertussis toxin was injected intraperitoneally on day 0 and day 2 so as to permeablize the blood brain barrier. All the animals in various experimental groups were scored daily for clinical disability on a scale of 0-6 where 0=no neurological symptoms, 1=limp tail, 2=weakness of hind limbs or ataxia, 3=incomplete paralysis of hind limbs, 4=complete paralysis of hind limbs, 5=complete paralysis of all four limbs, 6=dead. Diseased animals were provided easy access to food and water.
GA, J91, J92, S101, S102, S103 for two weeks and scored for clinical disability.

With “Eβ^3Kβ^3Pβ^3Kβ^3Vβ^3EAYβ^3Kβ^3Aβ^3Aβ^3Aβ^3Aβ^3Pβ^3Aβ^3 [Analog S16]”, the “Therapeutic activity in comparison to GA (Therapeutic activity (Analogs) − Therapeutic activity GA)” value came to 28.88%, the “Therapeutic activity in comparison to J5 (Therapeutic activity (Analogs) − Therapeutic activity (J5))” value was determined as 24.92% and the “Therapeutic activity = % reduction in cumulative clinical disability score” value (“Therapeutic activity = % reduction” below) is reported as 60.2139%.

Consider “KVEAYK (Peptide analog) [Analog J5b, reference compound]”, for which the “Therapeutic activity in comparison to GA (Therapeutic activity (Analogs) − Therapeutic activity GA)” value is recorded as −10.9091%, the “Therapeutic activity in comparison to J5 (Therapeutic activity (Analogs) − Therapeutic activity (J5))” value is given as −14.8663% and the “Therapeutic activity = % reduction” value was determined as 20.43%.

With “KVEAYKAAAA (Peptide analog) [Analog J5a, reference compound]”, the “Therapeutic activity in comparison to GA (Therapeutic activity (Analogs) − Therapeutic activity GA)” value is on record as −2.995%, the “Therapeutic activity in comparison to J5 (Therapeutic activity (Analogs) − Therapeutic activity (J5))” value is recorded as −6.952% and the “Therapeutic activity = % reduction” value is given as 28.34%.

As to KVEAYKAAAAβ [Analog S55], the “Therapeutic activity in comparison to GA (Therapeutic activity (Analogs) − Therapeutic activity GA)” value is −2.781%, the “Therapeutic activity in comparison to J5 (Therapeutic activity (Analogs) − Therapeutic activity (J5))” value is recorded as −6.738% and the “Therapeutic activity = % reduction” value came out at 28.56%.

On to “KVEAYKAAAAβ^3 (KVEAYKAAA[β3hA]) [Analog S17]”, for which the “Therapeutic activity in comparison to GA (Therapeutic activity (Analogs) − Therapeutic activity GA)” value is recorded as −2.032%, the “Therapeutic activity in comparison to J5 (Therapeutic activity (Analogs) − Therapeutic activity (J5))” value is given as −5.989% and the “Therapeutic activity = % reduction” value is 29.3%.

As for KVEAYKAAAβAβ [Analog S56], the “Therapeutic activity in comparison to GA (Therapeutic activity (Analogs) − Therapeutic activity GA)” value was −0.4278%, the “Therapeutic activity in comparison to J5 (Therapeutic activity (Analogs) − Therapeutic activity (J5))” value is given as −4.385% and the “Therapeutic activity = % reduction” value came to 30.91%.

For the substance “KVEAYKAAAβ^3Aβ^3 (KVEAYKAA[β3hA][β3hA]) [Analog S18]”, the “Therapeutic activity in comparison to GA (Therapeutic activity (Analogs) − Therapeutic activity GA)” value was −3.957%, the “Therapeutic activity in comparison to J5 (Therapeutic activity (Analogs) − Therapeutic activity (J5))” value is on record as −7.914% and the “Therapeutic activity = % reduction” value was 27.38%.

KVEAYKAAβAβAβ [Analog S57]: the “Therapeutic activity in comparison to GA (Therapeutic activity (Analogs) − Therapeutic activity GA)” value is reported as 8.021%, the “Therapeutic activity in comparison to J5 (Therapeutic activity (Analogs) − Therapeutic activity (J5))” value is 4.064% and the “Therapeutic activity = % reduction” value was determined as 39.36%.

As for “KVEAYKAAβ^3Aβ^3Aβ^3 (KVEAYKA[β3hA][β3hA][β3hA]) [Analog S19]”, the “Therapeutic activity in comparison to GA (Therapeutic activity (Analogs) − Therapeutic activity GA)” value worked out at 5.989%, the “Therapeutic activity in comparison to J5 (Therapeutic activity (Analogs) − Therapeutic activity (J5))” value was 2.032% and the “Therapeutic activity = % reduction” value was 37.3262%.

As to KVEAYKAβAβAβAβ [Analog S58], the “Therapeutic activity in comparison to GA (Therapeutic activity (Analogs) − Therapeutic activity GA)” value is on record as 11.02%, the “Therapeutic activity in comparison to J5 (Therapeutic activity (Analogs) − Therapeutic activity (J5))” value amounted to 7.059% and the “Therapeutic activity = % reduction” value is listed as 42.35%.

For the substance “KVEAYKAβ^3Aβ^3Aβ^3Aβ^3 (KVEAYK[β3hA][β3hA][β3hA][β3hA]) [Analog S20]”, the “Therapeutic activity in comparison to GA (Therapeutic activity (Analogs) − Therapeutic activity GA)” value is 16.9%, the “Therapeutic activity in comparison to J5 (Therapeutic activity (Analogs) − Therapeutic activity (J5))” value is on record as 12.94% and the “Therapeutic activity = % reduction” value is 48.24%.

In the case of KVEAYKβ [Analog S66], the “Therapeutic activity in comparison to GA (Therapeutic activity (Analogs) − Therapeutic activity GA)” value is listed as −9.412%, the “Therapeutic activity in comparison to J5 (Therapeutic activity (Analogs) − Therapeutic activity (J5))” value is recorded as −13.369% and the “Therapeutic activity = % reduction” value was determined as 21.93%.

In the case of KVEAYKβAβAβAβAβ [Analog S59], the “Therapeutic activity in comparison to GA (Therapeutic activity (Analogs) − Therapeutic activity GA)” value is listed as 12.94%, the “Therapeutic activity in comparison to J5 (Therapeutic activity (Analogs) − Therapeutic activity (J5))” value was 8.984% and the “Therapeutic activity = % reduction” value was 44.28%.

With KVEAYKβ^3 (KVEAY[β3hK]) [Analog S28], the “Therapeutic activity in comparison to GA (Therapeutic activity (Analogs) − Therapeutic activity GA)” value was −7.38%, the “Therapeutic activity in comparison to J5 (Therapeutic activity (Analogs) − Therapeutic activity (J5))” value is recorded as −11.3369% and the “Therapeutic activity = % reduction” value came to 23.96%.

Take KVEAYKβ^3Aβ^3Aβ^3Aβ^3Aβ^3 [Analog S21]: the “Therapeutic activity in comparison to GA (Therapeutic activity (Analogs) − Therapeutic activity GA)” value amounted to 17.97%, the “Therapeutic activity in comparison to J5 (Therapeutic activity (Analogs) − Therapeutic activity (J5))” value was 14.01% and the “Therapeutic activity = % reduction” value was determined as 49.3%.

Turning to KVEAYβKβ (KVEA[Yβ][Kβ″]) [Analog S67], the “Therapeutic activity in comparison to GA (Therapeutic activity (Analogs) − Therapeutic activity GA)” value is −12.9412%, the “Therapeutic activity in comparison to J5 (Therapeutic activity (Analogs) − Therapeutic activity (J5))” value was −16.8984% and the “Therapeutic activity = % reduction” value turned out to be 18.4%.

As to KVEAYβKβAβAβAβAβ [Analog S60], the “Therapeutic activity in comparison to GA (Therapeutic activity (Analogs) − Therapeutic activity GA)” value amounted to 10.05%, the “Therapeutic activity in comparison to J5 (Therapeutic activity (Analogs) − Therapeutic activity (J5))” value came out at 6.096% and the “Therapeutic activity = % reduction” value came to 41.39%.

For “KVEAYβ^3Kβ^3 (KVEA[β3hY][β3hK]) [Analog S29]”, the “Therapeutic activity in comparison to GA (Therapeutic activity (Analogs) − Therapeutic activity GA)” value is listed as −1.07%, the “Therapeutic activity in comparison to J5 (Therapeutic activity (Analogs) − Therapeutic activity (J5))” value is −5.027% and the “Therapeutic activity = % reduction” value is 30.27%.

Regarding “KVEAYβ^3Kβ^3Aβ^3Aβ^3Aβ^3Aβ^3 [Analog S22]”, the “Therapeutic activity in comparison to GA (Therapeutic activity (Analogs) − Therapeutic activity GA)” value is on record as 17.43%, the “Therapeutic activity in comparison to J5 (Therapeutic activity (Analogs) − Therapeutic activity (J5))” value is 13.48% and the “Therapeutic activity = % reduction” value is 48.77%.

With KVEAβYβKβ [Analog S68], the “Therapeutic activity in comparison to GA (Therapeutic activity (Analogs) − Therapeutic activity GA)” value was −5.134%, the “Therapeutic activity in comparison to J5 (Therapeutic activity (Analogs) − Therapeutic activity (J5))” value is recorded as −9.091% and the “Therapeutic activity = % reduction” value was found to be 26.2%.

Consider KVEAβYβKβAβAβAβAβ [Analog S61], for which the “Therapeutic activity in comparison to GA (Therapeutic activity (Analogs) − Therapeutic activity GA)” value worked out at 8.6631%, the “Therapeutic activity in comparison to J5 (Therapeutic activity (Analogs) − Therapeutic activity (J5))” value is recorded as 4.706% and the “Therapeutic activity = % reduction” value was 40%.

For the substance KVEAβ^3Yβ^3Kβ^3 [Analog S30], the “Therapeutic activity in comparison to GA (Therapeutic activity (Analogs) − Therapeutic activity GA)” value is 0.8556%, the “Therapeutic activity in comparison to J5 (Therapeutic activity (Analogs) − Therapeutic activity (J5))” value was −3.102% and the “Therapeutic activity = % reduction” value is listed as 32.19%.

For “KVEAβ^3Yβ^3Kβ^3Aβ^3Aβ^3Aβ^3Aβ^3 [Analog S23]”, the “Therapeutic activity in comparison to GA (Therapeutic activity (Analogs) − Therapeutic activity GA)” value amounted to 22.14%, the “Therapeutic activity in comparison to J5 (Therapeutic activity (Analogs) − Therapeutic activity (J5))” value came out at 18.18% and the “Therapeutic activity = % reduction” value was found to be 53.48%.

As to KVEβAβYβKβ [Analog S69], the “Therapeutic activity in comparison to GA (Therapeutic activity (Analogs) − Therapeutic activity GA)” value is on record as −8.877%, the “Therapeutic activity in comparison to J5 (Therapeutic activity (Analogs) − Therapeutic activity (J5))” value was −12.8342% and the “Therapeutic activity = % reduction” value is on record as 22.46%.

With KVEβAβYβKβAβAβAβAβ [Analog S62], the “Therapeutic activity in comparison to GA (Therapeutic activity (Analogs) − Therapeutic activity GA)” value stood at 5.455%, the “Therapeutic activity in comparison to J5 (Therapeutic activity (Analogs) − Therapeutic activity (J5))” value is 1.497% and the “Therapeutic activity = % reduction” value was 36.79%.

For KVEβ^3Aβ^3Yβ^3Kβ^3 [Analog S31], the “Therapeutic activity in comparison to GA (Therapeutic activity (Analogs) − Therapeutic activity GA)” value is given as −1.818%, the “Therapeutic activity in comparison to J5 (Therapeutic activity (Analogs) − Therapeutic activity (J5))” value was −5.7754% and the “Therapeutic activity = % reduction” value is given as 29.52%.

Regarding “KVEβ^3Aβ^3Yβ^3Kβ^3Aβ^3Aβ^3Aβ^3Aβ^3 [Analog S24]”, the “Therapeutic activity in comparison to GA (Therapeutic activity (Analogs) − Therapeutic activity GA)” value amounted to 20.32%, the “Therapeutic activity in comparison to J5 (Therapeutic activity (Analogs) − Therapeutic activity (J5))” value turned out to be 16.36% and the “Therapeutic activity = % reduction” value was found to be 51.66%.

With KVβEβAβYβKβ [Analog S70], the “Therapeutic activity in comparison to GA (Therapeutic activity (Analogs) − Therapeutic activity GA)” value was −16.8984%, the “Therapeutic activity in comparison to J5 (Therapeutic activity (Analogs) − Therapeutic activity (J5))” value is −20.8556% and the “Therapeutic activity = % reduction” value stood at 14.4385%.

With KVβEβAβYβKβAβAβAβAβ [Analog S63], the “Therapeutic activity in comparison to GA (Therapeutic activity (Analogs) − Therapeutic activity GA)” value is listed as −9.305%, the “Therapeutic activity in comparison to J5 (Therapeutic activity (Analogs) − Therapeutic activity (J5))” value is −13.262% and the “Therapeutic activity = % reduction” value was found to be 22.03%.

As for KVβ^3Eβ^3Aβ^3Yβ^3Kβ^3 [Analog S32], the “Therapeutic activity in comparison to GA (Therapeutic activity (Analogs) − Therapeutic activity GA)” value is listed as 11.23%, the “Therapeutic activity in comparison to J5 (Therapeutic activity (Analogs) − Therapeutic activity (J5))” value is reported as 7.273% and the “Therapeutic activity = % reduction” value was 42.57%.

As to “KVβ^3Eβ^3Aβ^3Yβ^3Kβ^3Aβ^3Aβ^3Aβ^3Aβ^3 [Analog S25]”, the “Therapeutic activity in comparison to GA (Therapeutic activity (Analogs) − Therapeutic activity GA)” value was determined as 22.25%, the “Therapeutic activity in comparison to J5 (Therapeutic activity (Analogs) − Therapeutic activity (J5))” value was 18.29% and the “Therapeutic activity = % reduction” value worked out at 53.58%.

For the substance KβVβEAYβKβ [Analog S72], the “Therapeutic activity in comparison to GA (Therapeutic activity (Analogs) − Therapeutic activity GA)” value is recorded as −15.9358%, the “Therapeutic activity in comparison to J5 (Therapeutic activity (Analogs) − Therapeutic activity (J5))” value is listed as −19.8931% and the “Therapeutic activity = % reduction” value is 15.4%.
